Assay results from US11957684B2, “Treatment of heavy menstrual bleeding associated with uterine fibroids” (Sumitomo Pharma Switzerland GmbH, priority 2016, dated 2024).
Where “and” joins values, the source holds several entries; their conditions need not be identical. Equal entries are not always repeated.

Tested on: heavy menstrual bleeding associated with uterine fibroids
Test: Example 5A 12-week placebo-controlled study in uterine fibroids: efficacy (PBAC, volumes, NRS, UFS-QOL, anemia parameters)
Type: in vivo, human
Method: Study participants were Japanese women with HMB (heavy menstrual bleeding) associated with UF (uterine fibroids).
Only the largest myomas among those measurable at Visit 1 were measured throughout the study.
During the period between Visit 2 and 3, in which subjects must have experienced at least 1 regular menstrual cycle, the baseline values concerning efficacy evaluation, including PBAC scores and pain symptoms, were collected. The baseline PBAC score is the total PBAC score for the entire menstrual cycle immediately before Visit 3.
Visit 3 was on Days 1 to 5 of the second menstrual cycle after Visit 1. From Visits 3 to 7, subjects tried to visit the clinics in a fasted state and before taking the study drug.
When a dose was missed before breakfast, subjects took the study drug 30 minutes before either dinner or lunch on the same day.
Pain symptoms, other clinical symptoms and QOL were measured as secondary endpoints. Pain symptoms were evaluated in the patient diary from Visit 1 to the day before Visit 7 using the NRS score. The UFS-QOL score was used to evaluate other clinical symptoms and the QOL of subjects. Subjects completed the UFS-QOL questionnaire at Visits 3, 5, 6 and 7.
In particular, FIGS. 50-52 tabulate hemoglobin concentrations; FIG. 53 tabulates hematocrit percentages; FIG. 54 tabulates serum iron concentrations; and FIG. 55 tabulates ferritin concentrations.
PBAC scores were used in Example 5A, and provide an estimate of menstrual blood loss volume. The PBAC score was evaluated by having subjects record details related to menstrual blood loss on a PBAC score sheet distributed by the sponsor during the treatment period. […] These items represent the level of stained sanitary materials over the course of a menstrual cycle, with a total score ranging from 0 (none) to infinity. Higher scores indicate heavier blood loss. The PBAC score sheet also allows subjects to indicate: whether they experienced bleeding between periods that required sanitary protection; whether they passed clots, and if so, approximate size of the clots; whether they experienced episodes of flooding; and whether they required double protection (used both a pad and tampon simultaneously). As used in the PBAC score sheet of Example 5A, flooding is defined as overflowing, or staining, of clothing or underwear due to menstrual bleeding.
The total PBAC score was derived by summing points for each of the above.
All myoma and uterine volumes referred to herein were evaluated using transvaginal ultrasound. Specifically, the myoma volumes were calculated using the following formula: D1×D2×D3×π/6, where D1 is the longest diameter of the myoma; D2 is the longest diameter of the myoma at an angle perpendicular to D1; and D3 is the diameter of the myoma crossing the intersection of D1 and D2 perpendicular to the D1/D2 plane.

[1] = 20 mg, Week 12, listed as Relugolix
[2] = 40 mg, Week 6-12, listed as Relugolix
[3] = 40 mg, Week 12, listed as Relugolix

For CONC(=O)Nc1ccc(-c2sc3c(c2CN(C)C)c(=O)n(-c2ccc(OC)nn2)c(=O)n3Cc2c(F)cccc2F)cc1 [Compound 1, N-(4-(1-(2,6-difluorobenzyl)-5-((dimethylamino)methyl)-3-(6-methoxy-3-pyridazinyl)-2,4-dioxo-1,2,3,4-tetrahydrothieno[2,3-d]pyrimidin-6-yl)phenyl)-N′-methoxyurea], which “UFS-QOL HRQL total score” value (20 mg, Week 8) is on record?
Its value is 9.54±10.904.

What about the “UFS-QOL symptom severity score” value (20 mg, Week 8) of the same compound?
The value was 18.53±13.304.

What about the ferritin value (20 mg, Week 8) of the same compound?
The ferritin value was 16.34 ± 15.659 ng/mL.

What about the myoma volume (20 mg, Week 8) of the same compound?
The myoma volume was 86.34±103.084 cm^3.

What about the uterine volume (20 mg, Week 8) of the same compound?
The uterine volume was 290.93±413.549 cm^3.

And the “Fe value (serum iron)” value (20 mg, Week 12)?
Its value is 85.7 ± 44.40 µg/dL.

What about the Ht value (20 mg, Week 12) of the same compound?
The Ht value was 40.54±3.003%.

And the “UFS-QOL HRQL total score” value (20 mg, Week 12)?
The value was 9.63±12.735.

What about the “UFS-QOL HRQL total, change from baseline” value (20 mg, Week 12) of the same compound?
The value was −2.11±10.529.

What about the “UFS-QOL symptom severity score” value (20 mg, Week 12) of the same compound?
The value was 16.56±14.024.

And the “UFS-QOL symptom severity, change from baseline” value (“UFS-QOL symptom severity, change” for short) (20 mg, Week 12)?
Its value is −8.97±15.530.

And the “change of Fe value from baseline” value (20 mg, Week 12)?
Its value is 24.7 ± 53.53 µg/dL.

What about the “change of Hb from baseline” value (20 mg, Week 12) of the same compound?
The value was 0.83 ± 1.161 g/dL.

And the “change of Ht value from baseline” value (20 mg, Week 12)?
The value was 2.31±3.522%.

What about the “change of ferritin value from baseline” value (20 mg, Week 12) of the same compound?
Its value is 3.50 ± 10.229 ng/mL.

And the ferritin value (20 mg, Week 12)?
The ferritin value was 18.03 ± 14.427 ng/mL.

And the myoma volume (20 mg, Week 12)?
Its myoma volume is 75.09±89.699 cm^3.

And the “percent change of myoma volume from baseline” value (from here on “percent change of myoma volume”) (20 mg, Week 12)?
Its value is −36.69±32.631%.

What about the “percent change of uterine volume from baseline” value (“percent change of uterine volume” below) (20 mg, Week 12) of the same compound?
Its value is −27.70±28.787%.

And the uterine volume (20 mg, Week 12)?
Its uterine volume is 259.44±322.759 cm^3.

What about the “UFS-QOL HRQL total, change from baseline” value [1] of the same compound?
The value was −2.

And the “UFS-QOL symptom severity, change” value [1]?
The value was −9.

And the “change of Hb from baseline” value [1]?
The value was 0.8 g/dL.

And the “percent change of myoma volume” value [1]?
Its value is −37%.

What about the “percent change of uterine volume” value [1] of the same compound?
The value was −28%.

And the “Amenorrhea (PBAC from Week 6 to 12 was 0), number of patients” value (40 mg (n = 55))?
Its value is 40 n.

What about the myoma volume (40 mg, Week 2) of the same compound?
Its myoma volume is 109.29±132.534 cm^3.

And the uterine volume (40 mg, Week 2)?
The uterine volume was 293.51±288.596 cm^3.

And the NRS score (40 mg, Week 2-6)?
Its NRS score is 0.29±0.564.

What about the “subjects who achieved amenorrhea (PBAC = 0)” value (40 mg, Week 2-6) of the same compound?
The value was 54.5%.

What about the “subjects with total PBAC score <10” value (40 mg, Week 2-6) of the same compound?
Its value is 65.5%.

And the NRS score (40 mg, Week 2-12)?
The NRS score was 0.27±0.535.

What about the “subjects with total PBAC score <10” value (40 mg, Week 2-12) of the same compound?
The value was 61.8%.

And the “Fe value (serum iron)” value (40 mg, Week 4)?
The value was 77.6 ± 44.81 µg/dL.

What about the Ht value (40 mg, Week 4) of the same compound?
Its Ht value is 39.44±4.012%.

What about the “UFS-QOL HRQL total score” value (40 mg, Week 4) of the same compound?
The value was 11.31±12.082.

What about the “UFS-QOL symptom severity score” value (40 mg, Week 4) of the same compound?
The value was 24.10±16.141.

And the ferritin value (40 mg, Week 4)?
Its ferritin value is 15.14 ± 15.133 ng/mL.

And the myoma volume (40 mg, Week 4)?
The myoma volume was 100.04±139.060 cm^3.

And the uterine volume (40 mg, Week 4)?
The uterine volume was 267.74±275.256 cm^3.

What about the NRS score (40 mg, Week 6-12) of the same compound?
The NRS score was 0.25±0.542.

And the “change of total PBAC score from baseline” value (40 mg, Week 6-12)?
Its value is −238.7±203.34.

What about the “subjects who achieved amenorrhea (PBAC = 0)” value (40 mg, Week 6-12) of the same compound?
The value was 72.7% and 73%.

What about the “subjects with total PBAC score <10” value (40 mg, Week 6-12) of the same compound?
The value was 83.6%.

And the “total PBAC score (mean±SD)” value (40 mg, Week 6-12)?
The value was 21.3±56.11.

And the NRS score [2]?
The NRS score was 0.2.

What about the “subjects who achieved amenorrhea (PBAC = 0)” value [2] of the same compound?
Its value is “(72.7) %”.

What about the “Fe value (serum iron)” value (40 mg, Week 8) of the same compound?
The value was 78.2 ± 41.91 µg/dL.

And the Ht value (40 mg, Week 8)?
The Ht value was 40.23±3.620%.

And the “UFS-QOL HRQL total score” value (40 mg, Week 8)?
The value was 11.20±12.279.

What about the “UFS-QOL symptom severity score” value (40 mg, Week 8) of the same compound?
The value was 18.08±15.187.

What about the ferritin value (40 mg, Week 8) of the same compound?
Its ferritin value is 18.10 ± 16.177 ng/mL.

And the myoma volume (40 mg, Week 8)?
Its myoma volume is 86.01±120.639 cm^3.

And the uterine volume (40 mg, Week 8)?
The uterine volume was 224.91±227.442 cm^3.

And the “Fe value (serum iron)” value (40 mg, Week 12)?
Its value is 82.0 ± 36.93 µg/dL.

What about the Ht value (40 mg, Week 12) of the same compound?
The Ht value was 40.53±3.307%.

What about the “UFS-QOL HRQL total score” value (40 mg, Week 12) of the same compound?
Its value is 9.52±10.885.

What about the “UFS-QOL HRQL total, change from baseline” value (40 mg, Week 12) of the same compound?
The value was −5.52±15.871.

What about the “UFS-QOL symptom severity score” value (40 mg, Week 12) of the same compound?
The value was 14.05±15.272.

What about the “UFS-QOL symptom severity, change” value (40 mg, Week 12) of the same compound?
The value was −11.25±17.274.

What about the “change of Fe value from baseline” value (40 mg, Week 12) of the same compound?
The value was 25.5 ± 44.43 µg/dL.

And the “change of Hb from baseline” value (40 mg, Week 12)?
Its value is 0.92 ± 1.183 g/dL.

And the “change of Ht value from baseline” value (40 mg, Week 12)?
The value was 2.46±3.445%.

And the “change of ferritin value from baseline” value (40 mg, Week 12)?
Its value is 8.91 ± 13.131 ng/mL.

And the ferritin value (40 mg, Week 12)?
Its ferritin value is 21.84 ± 21.509 ng/mL.

And the myoma volume (40 mg, Week 12)?
Its myoma volume is 77.88±110.873 cm^3.

And the “percent change of myoma volume” value (40 mg, Week 12)?
The value was −38.59±34.197%.

What about the “percent change of uterine volume” value (40 mg, Week 12) of the same compound?
The value was −40.90±37.233%.

What about the uterine volume (40 mg, Week 12) of the same compound?
Its uterine volume is 208.03±209.312 cm^3.

And the “UFS-QOL HRQL total, change from baseline” value [3]?
The value was −6.

What about the “UFS-QOL symptom severity, change” value [3] of the same compound?
Its value is −11.

What about the “change of Hb from baseline” value [3] of the same compound?
Its value is 0.9 g/dL.

And the “percent change of myoma volume” value [3]?
Its value is −39%.

And the “percent change of uterine volume” value [3]?
The value was −41%.
